Assay results reported in patent publication EP4786465A1, “NOVEL COMPOUND, AND PHARMACEUTICAL COMPOSITION FOR PREVENTION OR TREATMENT OF CANCER OR TUMORS COMPRISING SAME” (Daewoong Pharmaceutical Co., Ltd., priority 2023, dated 2025).
pIC50: −log10 of the molar value.

Key:
Format in all cases: cell-based
[1] = tested on: transcription factor TEAD; assay: Activity inhibition test of transcription factor TEAD (ONE-Glo Luciferase assay, Hippo Pathway TEAD reporter-MCF7 recombinant cell line); conditions: Homo sapiens; TEAD Reporter-MCF7 cells, 24 hours treatment, luciferase luminescence
Protocol: The transcription factor TEAD activity of the compounds prepared in the Examples was measured by the ONE-Glo™ Luciferase assay (Promega, Catalog #E6110) method using the Hippo Pathway TEAD reporter-MCF7 recombinant cell line (BPS Bioscience, Catalog #60618). Specifically, the TEAD Reporter-MCF7 cell line contains the firefly luciferase gene whose expression is regulated under the control of TEAD response elements in the MCF7, which is a human breast cancer cell line. In the cell line, a non-phosphorylated YAP/TAZ exists in the nucleus in a non-stressed condition, which continuously induces expression of the luciferase reporter. TEAD Reporter-MCF7 cells were prepared in 100 µL of cell culture medium (MEM medium, 10% FBS, 1% P/S, 400 µg/mL Geneticin, 1% […], 1 mM NA pyruvate, 10 µg/mL Insulin) in a white clear bottom 96-well microplate. The prepared plate was incubated in a 5% CO2 incubator at 37°C for 24 hours, and then the previously prepared compounds of Examples were finally treated at concentrations of 0.0005, 0.005, 0.05, 0.5 and 5 µM, which were repeated three times for all treatment solutions. The plates treated with the compounds of Examples were incubated in a 5% CO2 incubator at 37°C for 24 hours. 100 µL/well of the substrate aqueous solution containing luciferin was added to a white clear-bottom 96 well microplate, thereby initiating an enzyme reaction. The reaction was performed at room temperature for 5 minutes, and the luminescence (integration time 1000 ms) was measured using a Flexstation3 multi-mode microplate reader. In accordance with the instructions for the ONE-Glo™ Luciferase Assay, the luciferase enzyme activity, which represents the activity of the transcription factor TEAD, was measured by a chemiluminescence method, and the inhibitory activity of the compound according to the present disclosure was calculated. The results of each compound were analyzed using Microsoft Excel, and the IC50 values were calculated by GraphPad Prism software.

[2] = tested on: NCI-H28; assay: Cell growth inhibition test (CellTiter-Glo Luminescent Cell Viability), NCI-H28; conditions: Homo sapiens; NCI-H28 cells, CellTiter-Glo; read-out: growth IC50 H28
Protocol: (§1) The cell growth for the compounds prepared in Examples was measured by CellTiter-Glo® Luminescednt Cell Viability (Promega, Catalog #G7571) method using NCI-H226 (addexbio), NCI-H28 (Korea Cell Line Bank) cell lines. This evaluation method is a method in which when luciferase enzyme is activated by ATP flowing out from living cells, it reacts with a luciferin substrate, and the enzyme activity at this time is measured to confirm cell viability.
(§2) Specifically, NCI-H226, and NCI-H28 cells were prepared in 100 µL of cell culture medium (RPMI medium, 10% FBS, 1% P/S, 4.5 g/L D-Glucose, 2.383 g/L HEPES Buffer, L-Glutamine, 1.5 g/L Sodium Bicarbonate, 110 mg/L Sodium pyruvate) in a white clear bottom 96-well microplate. The prepared plate was incubated in a 5% CO2 incubator at 37°C for 24 hours, and then the previously prepared compounds of Examples were finally treated at concentrations of 0.0005, 0.005, 0.05, 0.5 and 5 µM, which was repeated three times for all treatment solutions. The plates treated with the compounds of Examples were incubated in a 5% CO2 incubator at 37°C. 100 µL/well of the substrate aqueous solution containing luciferin was added to a white clear-bottom 96 well microplate, thereby initiating an enzyme reaction. The reaction was performed at room temperature in the dark for 10 minutes, and the luminescence was measured using a Flexstation3 multi-mode microplate reader. In accordance with the instructions for the CellTiter-Glo™ Luminescednt Cell Viability, the luciferase enzyme activity, which represents the amount of ATP, was measured by a chemiluminescence method, and the inhibitory activity of the compounds according to the present disclosure was calculated. The results of each compound were analyzed using Microsoft Excel, and the IC50 values were calculated using GraphPad Prism software.

[3] = tested on: NCI-H226; assay: Cell growth inhibition test (CellTiter-Glo Luminescent Cell Viability), NCI-H226; conditions: Homo sapiens; NCI-H226 cells, CellTiter-Glo; read-out: growth IC50 H226
Protocol: as §1, §2

pIC50 [1] | pIC50 [2] | pIC50 [3] | SMILES
8.07 | 5.48 | 8.02 | C=CC(=O)N1CCc2c(ccc(Nc3cc(F)c(C(F)(F)F)c(F)c3)c2-c2cn(C)cn2)C1 [Example 17, 1-(6-((3,5-difluoro-4-(trifluoromethyl)phenyl)amino)-5-(1-methyl-1H-imidazol-4-yl)-3,4-dihydroisoquinolin-2(1H)-yl)prop-2-en-1-one]
7.30 | 5.82 | 7.00 | C=CC(=O)N1CCc2c(ccc(Nc3ccc(F)cc3)c2-c2cn(C)cn2)C1 [Example 10, 1-(6-((4-fluorophenyl)amino)-5-(1-methyl-1H-imidazol-4-yl)-3,4-dihydroisoquinolin-2(1H)-yl)prop-2-en-1-one]
